According to ChEMBL document CHEMBL6083285 (J Med Chem, 2024):

Assay: Inhibition of NLRP3 inflammasome activation in LPS-stimulated human whole blood assessed as reduction in IL-1beta release preincubated for 3 hrs followed by nigericin addition and measured after 1 hrs by Alphalisa method
Format: tissue-based
Conditions: not given

| Compound | IC50 |
| --- | --- |
| COc1cc(-c2ccc3c(c2NC(=O)NS(=O)(=O)c2cn(C(C)C)cn2)CCC3)ccn1 | 621 nM |
| CC(C)c1cccc2c1CC(=O)NS(=O)(=O)c1cnn(c1)C(C)(C)COc1cc-2ccn1 | 420 nM |
| O=C1Nc2c(ccc3c2CCC3)-c2ccnc(c2)OCCCCCCn2ccc(n2)S(=O)(=O)N1 | 1570 nM |
| CC(C)(O)c1coc(S(=O)(=O)NC(=O)Nc2c3c(cc4c2CCC4)CCC3)c1 | 770 nM |
| O=C1Nc2c(ccc3c2CCC3)-c2ccnc(c2)OCCCCCn2ccc(n2)S(=O)(=O)N1 | 1100 nM |
| CC(C)c1cccc2c1CC(=O)NS(=O)(=O)c1cnn(c1)C1(CCCC1)COc1cc-2ccn1 | 506 nM |
| CC(C)c1cc(F)cc2c1CC(=O)NS(=O)(=O)c1cnn(c1)C1(COC1)COc1cc-2ccn1 | 326 nM |

Now those with a lower IC50, led by results:

| IC50 | Compound |
| --- | --- |
| 270 nM | CC1(C)COc2cc(ccn2)-c2ccc3c(c2NC(=O)NS(=O)(=O)c2ccn1n2)CCC3 |
| 241 nM | CCC1(C)COc2cc(ccn2)-c2cccc(C(C)C)c2CC(=O)NS(=O)(=O)c2cnn1c2 (stereo unspecified) |
| 168 nM | CC1(C)COc2cc(ccn2)-c2ccc3c(c2NC(=O)NS(=O)(=O)c2nn1cc2F)CCC3 |

Assay: Inhibition of NLRP3 inflammasome activation mediated pyroptosis in LPS-stimulated human THP-1 cells preincubated for 3 hrs followed by nigericin addition and measured after 1 hrs by resazurin dye based assay
Format: cell-based
Conditions: not given

| Compound | IC50 |
| --- | --- |
| CC1(C)COc2cc(ccn2)-c2ccc3c(c2NC(=O)NS(=O)(=O)c2ccn1n2)CCC3 | 86 nM |
| COc1cc(-c2ccc3c(c2NC(=O)NS(=O)(=O)c2cn(C(C)C)cn2)CCC3)ccn1 | 61 nM |
| CC(C)c1cccc2c1CC(=O)NS(=O)(=O)c1cnn(c1)C(C)(C)COc1cc-2ccn1 | 166 nM |
| CC1(C)COc2cc(ccn2)-c2ccc3c(c2NC(=O)NS(=O)(=O)c2nn1cc2F)CCC3 | 17 nM |
| O=C1Nc2c(ccc3c2CCC3)-c2ccnc(c2)OCCCCCCn2ccc(n2)S(=O)(=O)N1 | 215 nM |
| CC(C)(O)c1coc(S(=O)(=O)NC(=O)Nc2c3c(cc4c2CCC4)CCC3)c1 | 64 nM |
| O=C1Nc2c(ccc3c2CCC3)-c2ccnc(c2)OCCCCCn2ccc(n2)S(=O)(=O)N1 | 289 nM |
| CC(C)c1cccc2c1CC(=O)NS(=O)(=O)c1cnn(c1)C1(CCCC1)COc1cc-2ccn1 | 105 nM |
| CCC1(C)COc2cc(ccn2)-c2cccc(C(C)C)c2CC(=O)NS(=O)(=O)c2cnn1c2 (stereo unspecified) | 275 nM |
| CC(C)c1cc(F)cc2c1CC(=O)NS(=O)(=O)c1cnn(c1)C1(COC1)COc1cc-2ccn1 | 84 nM |

Assay: Binding affinity to NanoLuc-tagged NLRP3 (unknown origin) expressed in HEK293 cells incubated for 2 hrs by NanoBRET assay
Format: cell-based
Conditions: Homo sapiens, HEK293, 2 h

| IC50 | Compound |
| --- | --- |
| 990 nM | CC(C)(O)c1coc(S(=O)(=O)NC(=O)Nc2c3c(cc4c2CCC4)CCC3)c1 |
